As a reminder, the GI50 is the concentration that inhibits growth by half. A word on the IC50: it is the concentration needed to halve the response being measured. The low end stands for greater potency in that assay, the high end for weaker potency in that assay.

The source made the active and inactive calls. The calls are words filed in the database; no cut-off is given here. Square brackets hold non-standard residues; d marks the D form. Peptide text beside a SMILES is read from it. * marks the point of attachment. β3hW = N[C@H](CC(=O)O)Cc1c[nH]c2ccccc12; 1Nal = N[C@@H](Cc1cccc2ccccc12)C(=O)O; β3hY = N[C@H](CC(=O)O)Cc1ccc(O)cc1; Asu = N[C@@H](CCCCCC(=O)O)C(=O)O; β3hL = CC(C)C[C@H](N)CC(=O)O; hLys = NCCCCC[C@H](N)C(=O)O; NHOH = ON* A value given as a limit tells only on which side of the number the result lay.

Among the data in ChEMBL document CHEMBL1156016, “Discovery of potent and selective histone deacetylase inhibitors via focused combinatorial libraries of cyclic alpha3beta-tetrapeptides” (J Med Chem, 2009) are GI50, IC50 and Activity values, retold here.

One assay relates to K562. As to the kind of experiment: cells. The conditions noted are these: Homo sapiens, K562, 72 h.
In assay [1] the target is Histone deacetylase. It counts as cell-based, Homo sapiens. The settings on record: hela.
Description: Inhibition of HDAC in human HeLa cell cytosolic extract after 30 mins by fluorimetric assay
In a further assay the target is Histone deacetylase 3 (Homo sapiens, UniProt O15379).
The test system of a further assay is Jurkat. Put plainly: cells. The settings on record: Homo sapiens, 72 h.
Assay [2] deals with Histone deacetylase. It counts as cell-based, Homo sapiens. The settings on record: hela. The source holds these as a separate data set.
Description: Inhibition of HDAC in human HeLa cell nuclear extract after 30 mins by fluorimetric assay
Assay [3] addresses T1, Protein deacetylase HDAC6 (Homo sapiens, UniProt Q9UBN7).
T1 sequence (Q9UBN7 whole entry): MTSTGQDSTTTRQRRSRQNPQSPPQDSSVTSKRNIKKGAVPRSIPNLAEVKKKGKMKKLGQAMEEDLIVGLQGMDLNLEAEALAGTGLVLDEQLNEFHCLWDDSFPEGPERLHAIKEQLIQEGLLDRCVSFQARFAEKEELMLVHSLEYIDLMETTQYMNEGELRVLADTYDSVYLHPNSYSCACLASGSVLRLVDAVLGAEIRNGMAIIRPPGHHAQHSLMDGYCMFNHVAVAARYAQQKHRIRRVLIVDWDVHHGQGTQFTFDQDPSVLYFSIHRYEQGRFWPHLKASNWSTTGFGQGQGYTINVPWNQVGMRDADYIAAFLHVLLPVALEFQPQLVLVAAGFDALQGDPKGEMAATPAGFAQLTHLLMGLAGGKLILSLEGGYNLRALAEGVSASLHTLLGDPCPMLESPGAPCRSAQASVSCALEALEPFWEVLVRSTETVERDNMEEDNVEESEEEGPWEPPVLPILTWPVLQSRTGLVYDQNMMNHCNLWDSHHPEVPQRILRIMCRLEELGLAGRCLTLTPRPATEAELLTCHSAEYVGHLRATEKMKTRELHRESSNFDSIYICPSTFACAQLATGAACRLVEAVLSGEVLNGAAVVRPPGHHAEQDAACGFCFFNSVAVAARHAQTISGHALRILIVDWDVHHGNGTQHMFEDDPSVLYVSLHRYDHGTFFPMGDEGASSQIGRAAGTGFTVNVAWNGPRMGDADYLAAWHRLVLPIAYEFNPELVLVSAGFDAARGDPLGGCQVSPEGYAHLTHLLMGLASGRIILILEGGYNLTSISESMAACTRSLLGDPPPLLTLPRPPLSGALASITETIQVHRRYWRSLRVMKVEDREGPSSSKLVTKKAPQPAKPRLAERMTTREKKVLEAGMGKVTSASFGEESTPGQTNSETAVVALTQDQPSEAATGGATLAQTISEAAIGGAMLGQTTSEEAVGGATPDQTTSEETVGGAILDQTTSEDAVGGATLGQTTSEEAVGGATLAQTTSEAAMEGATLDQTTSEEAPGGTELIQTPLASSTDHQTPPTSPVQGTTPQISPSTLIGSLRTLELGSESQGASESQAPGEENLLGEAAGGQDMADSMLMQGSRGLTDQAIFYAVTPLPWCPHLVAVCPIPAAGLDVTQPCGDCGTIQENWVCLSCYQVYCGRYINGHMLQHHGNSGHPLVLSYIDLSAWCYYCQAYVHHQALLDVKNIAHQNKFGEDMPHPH
Description: Inhibition of human recombinant HDAC6 after 30 mins by fluorimetric assay

Assay [4] concerns the target T2, Protein deacetylase HDAC6 (Homo sapiens) (UniProt Q9UBN7).
T2 sequence (whole entry): T1 sequence (Q9UBN7 whole entry)
Put plainly: Inhibition of HDAC6 in human Jurkat cells assessed as acetylated alpha-tubulin level at 0.2 to 20 uM after 24 hrs by Western blotting. It counts as cell-based. (A western blot detects proteins with antibodies after separation by electrophoresis.)

The subject of a further assay is MCF7. As to the kind of experiment: cells. The settings on record: Homo sapiens, MCF7, 72 h.
Another assay concerns HeLa. Put plainly: cells. The conditions noted are these: Homo sapiens, 72 h.
A short description of the next assay: cells. The settings on record: Homo sapiens, KYO1, 72 h.
For assay [5], the target named is Histone deacetylase (Homo sapiens) (UniProt Q13547+O15379+Q9UBN7+Q92769+Q9UQL6+Q8WUI4+Q9BY41+Q96DB2+P56524+Q9UKV0+Q969S8). As to the kind of experiment: Inhibition of class 1 HDAC in human Jurkat cells assessed as acetylated histone H3 level at 0.2 to 20 uM after 24 hrs by Western blotting. It counts as cell-based.
Another assay addresses Histone deacetylase 1 (Homo sapiens, UniProt Q13547).
The target in a further assay is T3, Histone deacetylase 8 (Homo sapiens, UniProt Q9BY41).
T3 sequence (Q9BY41 whole entry): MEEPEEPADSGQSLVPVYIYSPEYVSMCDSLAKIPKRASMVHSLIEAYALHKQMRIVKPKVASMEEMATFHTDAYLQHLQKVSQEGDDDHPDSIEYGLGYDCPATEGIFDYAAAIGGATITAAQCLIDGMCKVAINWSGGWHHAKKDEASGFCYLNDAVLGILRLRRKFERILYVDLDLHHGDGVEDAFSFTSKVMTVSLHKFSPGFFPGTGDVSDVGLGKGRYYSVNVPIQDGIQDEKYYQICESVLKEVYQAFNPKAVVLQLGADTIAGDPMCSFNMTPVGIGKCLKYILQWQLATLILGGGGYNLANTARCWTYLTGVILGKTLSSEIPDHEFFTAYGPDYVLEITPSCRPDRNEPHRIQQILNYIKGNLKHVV

Histone deacetylase 1, sequence (Q13547 whole entry): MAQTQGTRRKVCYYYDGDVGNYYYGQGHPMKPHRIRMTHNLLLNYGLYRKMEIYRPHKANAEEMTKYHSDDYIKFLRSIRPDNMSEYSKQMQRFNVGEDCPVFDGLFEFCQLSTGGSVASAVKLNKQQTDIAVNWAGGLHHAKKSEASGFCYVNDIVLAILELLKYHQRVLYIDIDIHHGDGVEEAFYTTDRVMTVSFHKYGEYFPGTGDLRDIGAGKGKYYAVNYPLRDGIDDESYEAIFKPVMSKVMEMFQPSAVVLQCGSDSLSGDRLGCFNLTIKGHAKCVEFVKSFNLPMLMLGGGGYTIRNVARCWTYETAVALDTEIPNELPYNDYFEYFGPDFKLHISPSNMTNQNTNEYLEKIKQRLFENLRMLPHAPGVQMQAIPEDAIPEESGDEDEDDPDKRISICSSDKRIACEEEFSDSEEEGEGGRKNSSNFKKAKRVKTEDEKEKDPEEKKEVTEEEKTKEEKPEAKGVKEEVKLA
Histone deacetylase 3, sequence (O15379 whole entry): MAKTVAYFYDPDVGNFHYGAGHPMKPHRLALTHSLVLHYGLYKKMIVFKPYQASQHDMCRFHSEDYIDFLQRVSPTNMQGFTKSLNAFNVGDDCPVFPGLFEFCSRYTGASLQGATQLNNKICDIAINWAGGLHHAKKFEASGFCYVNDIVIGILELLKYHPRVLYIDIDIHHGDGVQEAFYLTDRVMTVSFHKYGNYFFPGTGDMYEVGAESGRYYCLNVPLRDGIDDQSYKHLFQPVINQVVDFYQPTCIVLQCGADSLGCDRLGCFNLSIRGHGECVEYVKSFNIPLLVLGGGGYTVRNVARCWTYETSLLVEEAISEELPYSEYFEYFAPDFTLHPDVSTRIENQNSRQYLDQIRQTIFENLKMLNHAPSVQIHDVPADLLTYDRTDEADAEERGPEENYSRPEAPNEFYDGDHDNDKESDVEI
Description for Histone deacetylase 1: Inhibition of human recombinant HDAC1 after 30 mins by fluorimetric assay
Description for Histone deacetylase 3: Inhibition of human recombinant HDAC3 after 30 mins by fluorimetric assay
Description for Histone deacetylase 8: Inhibition of human recombinant HDAC8 after 30 mins by fluorimetric assay

With `CC(C)C[C@H]1CC(=O)N[C@@H](Cc2ccccc2)C(=O)N[C@@H](CCCCCC(=O)O)C(=O)N[C@@H](Cc2cccc3ccccc23)C(=O)N1` (cyclo([1Nal][β3hL]F[Asu])), the GI50 in the assay on K562 was above 20000 nM; in the assay with Jurkat it was above 20000 nM; in the assay with MCF7, above 20 µM; with HeLa, above 20 µM; in the assay “cells”, above 20 µM. Besides, the IC50 against Histone deacetylase [1] was 742 nM; on Histone deacetylase 3 it was 690 nM; on Histone deacetylase [2], 253 nM; in assay [3], 5.8 µM; against Histone deacetylase 1, 68 nM; against Histone deacetylase 8, 530 nM. In addition, in assay [4], the outcome was inactive. In addition, in assay [5], the result was Active.

Take `CC(C)C[C@H]1CC(=O)N[C@@H](Cc2ccccc2)C(=O)N[C@@H](CCCCCC(=O)NO)C(=O)N[C@@H](Cc2c[nH]c3ccccc23)C(=O)N1` (cyclo([Asu](NHOH)W[β3hL]F)): the GI50 in the assay with K562 amounted to 1900 nM; in the assay on Jurkat it was 1300 nM; in “cells”, 1.9 µM. Moreover, the IC50 was found to be 31 nM on Histone deacetylase 3 and 0.07 µM in [3].

In the case of `CCC(=O)CCCCC[C@@H]1NC(=O)[C@H](C)NC(=O)C[C@H](CC(C)C)NC(=O)[C@H](Cc2c[nH]c3ccccc23)NC1=O`, the values for the GI50 in the assay on K562 and with MCF7 were 2000 nM and above 20 µM, respectively.

As to `CCC(=O)CCCCC[C@@H]1NC(=O)[C@H](CCCCNC(C)=O)NC(=O)C[C@H](CC(C)C)NC(=O)[C@H](Cc2c[nH]c3ccccc23)NC1=O`, the GI50 with Jurkat was above 20000 nM; with MCF7 it was above 20 µM; in the assay with HeLa, above 20 µM.

For `N=C(N)NCCC[C@@H]1NC(=O)C[C@H](Cc2ccc(O)cc2)NC(=O)[C@H](CC(=O)O)NC(=O)[C@H](CCCCCC(=O)NO)NC1=O` (cyclo([Asu](NHOH)D[β3hY]R)), the results for the GI50 in the assay on Jurkat, with MCF7 and in the assay with HeLa were above 20000 nM, above 20 µM and 9 µM, respectively. Also, the result in assay [4] was Active. Besides, the outcome in [5] was inactive.

`CC(=O)NCCCCC[C@@H]1NC(=O)C[C@H](CC(C)C)NC(=O)[C@H](Cc2cccc3ccccc23)NC(=O)[C@H](CCCCCC(=O)O)NC1=O` (cyclo([1Nal][β3hL][hLys](Ac)[Asu])): the GI50 in the assay with K562 stood at 30000 nM; in the assay on Jurkat, 300 nM; in the assay with HeLa, 18 µM; in “cells” it was 43 µM. The IC50 on Histone deacetylase 3 is 32 nM; against Histone deacetylase [2], 17 nM; in [3], above 10 µM; on Histone deacetylase 1 it was 8 nM.

Turning to `O=C(O)CCCCC[C@@H]1NC(=O)[C@H](Cc2ccccc2)NC(=O)C[C@H](Cc2c[nH]c3ccccc23)NC(=O)[C@H](Cc2cccc3ccccc23)NC1=O` (cyclo([1Nal][β3hW]F[Asu])), the IC50 came out at 1009 nM on Histone deacetylase [1]; 1670 nM on Histone deacetylase 3; 1040 nM against Histone deacetylase [2]; 8 µM in [3]; 460 nM against Histone deacetylase 1.

`CC(C)C[C@H]1CC(=O)N[C@@H](C)C(=O)N[C@@H](CCCCCC(=O)O)C(=O)N[C@@H](Cc2cccc3ccccc23)C(=O)N1` (cyclo([Asu][1Nal][β3hL]A)): the IC50 was determined as 377 nM at Histone deacetylase [1], 990 nM at Histone deacetylase 3, 205 nM against Histone deacetylase [2] and 200 nM on Histone deacetylase 1.

In the case of `CC[C@]1(O)C[C@@H]2CN(CCc3c([nH]c4ccccc34)[C@@](C(=O)OC)(c3cc4c(cc3OC)N(C)[C@H]3[C@@](O)(C(=O)OC)[C@H](OC(C)=O)[C@]5(CC)C=CCN6CC[C@]43[C@@H]65)C2)C1` [VINBLASTINE], the GI50 in the assay on MCF7 was 10 µM; in the assay “cells”, below 0.1 µM.
